Experimental data as given in PubChem BioAssay AID296 (DTP/NCI, 2004).
“And” between values parts separate entries of the source, which are not always exact repeats. Identical values can stand only once. Inconclusive results are not listed. *1 amine or outer side, *2 acyl side, *3 side chain or, on linkers, in order; H or OH if unused. Where a SMILES comes first, the peptide text is derived from it. [ ]: non-standard residue; d: D form. The star is where a group is joined. X2 = CCC(=O)CC1CC(C)CC(C(=O)[*:2])N1[*:1]; X1 = CCCCCCCCC(C)C(=O)*; Aib = CC(C)(N)C(=O)O; X3 = CC(CN(C)CCO)N*

Test system: MX-1 breast xenograft, nude mice, tumor weight T/C
Test: NCI In Vivo Anticancer Drug Screen. Data for tumor model Human Mammary Carcinoma MX-1 Xenograft (intrarenal inoculation) in NU/NU Swiss (nude) mice
Details: endpoint: mean tumor weight change, higher = larger tumour
How it was run: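 Antitumour effect measured in vivo against vehicle controls, expressed as T/C.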

[1] = dose: 200.0 mg/kg/injection, schedule: Q04DX003 (sc), vehicle: Klucel (hydroxypropylcellulose) (HPC)
[2] = dose: 400.0 mg/kg/injection, schedule: Q04DX003 (sc), vehicle: Klucel (hydroxypropylcellulose) (HPC)
[3] = dose: 800.0 mg/kg/injection, schedule: Q04DX003 (sc), vehicle: Klucel (hydroxypropylcellulose) (HPC)
[4] = dose: 300.0 mg/kg/injection, schedule: Q04DX003 (sc), vehicle: saline
[5] = dose: 600.0 mg/kg/injection, schedule: Q04DX003 (sc), vehicle: saline
[6] = dose: 300.0 mg/kg/injection, schedule: Q04DX003 (sc), vehicle: saline with Tween-80
[7] = dose: 600.0 mg/kg/injection, schedule: Q04DX003 (sc), vehicle: saline with Tween-80
[8] = dose: 1200.0 mg/kg/injection, schedule: Q04DX003 (sc), vehicle: saline with Tween-80
[9] = dose: 2400.0 mg/kg/injection, schedule: Q04DX003 (sc), vehicle: saline with Tween-80
[10] = dose: 300.0 mg/kg/injection, schedule: Q04DX003 (sc), vehicle: Klucel (hydroxypropylcellulose) (HPC)
[11] = dose: 600.0 mg/kg/injection, schedule: Q04DX003 (sc), vehicle: Klucel (hydroxypropylcellulose) (HPC)
[12] = dose: 1200.0 mg/kg/injection, schedule: Q04DX003 (sc), vehicle: Klucel (hydroxypropylcellulose) (HPC)
[13] = dose: 75.0 mg/kg/injection, schedule: Q04DX003 (sc), vehicle: Klucel (hydroxypropylcellulose) (HPC)
[14] = dose: 150.0 mg/kg/injection, schedule: Q04DX003 (sc), vehicle: Klucel (hydroxypropylcellulose) (HPC)
[15] = dose: 1200.0 mg/kg/injection, schedule: Q04DX003 (sc), vehicle: saline
[16] = dose: 200.0 mg/kg/injection, schedule: Q04DX003 (sc), vehicle: saline with Tween-80

SMILES: CNC(=O)SCC(N)C(=O)O (stereo not drawn)
- T/C (dose: 112.5 mg/kg/injection, schedule: Q04DX003 (ip), vehicle: saline): 86 % of control
- T/C (dose: 225.0 mg/kg/injection, schedule: Q04DX003 (ip), vehicle: saline): 67 % of control
- T/C (dose: 450.0 mg/kg/injection, schedule: Q04DX003 (ip), vehicle: saline): 27 % of control
- T/C (dose: 900.0 mg/kg/injection, schedule: Q04DX003 (ip), vehicle: saline): 17 % of control

SMILES: CSc1nc(=O)[nH]nc1SCc1ccccc1
- T/C [1]: 100 % of control
- T/C [2]: 87 % of control
- T/C [3]: 69 % of control
- T/C (dose: 1600.0 mg/kg/injection, schedule: Q04DX003 (sc), vehicle: Klucel (hydroxypropylcellulose) (HPC)): 60 % of control

SMILES: CCOc1ccc(-c2nc3ccc(-c4nc5ccc(N6CCN(C)CC6)cc5[nH]4)cc3[nH]2)cc1
- T/C (dose: 25.0 mg/kg/injection, schedule: Q04DX003 (ip), vehicle: saline): 96 % of control

SMILES: Nc1ncnc2c1nnn2C1OC(CO)C(O)C1O (stereo not drawn)
- T/C (dose: 18.75 mg/kg/injection, schedule: Q04DX003 (sc), vehicle: Klucel (hydroxypropylcellulose) (HPC)): 76 % of control and 80 % of control

SMILES: CCCCCCCCCCCCCCCCCCOCC(COP(=O)([O-])OCC[N+](C)(C)C)OC (stereo not drawn)
- T/C (dose: 150.0 mg/kg/injection, schedule: Q04DX003 (sc), vehicle: saline): 120 % of control

SMILES: Cn1c2nc(=O)n(-c3ccccc3)c(=O)c-2nc2c1CCCC2
- T/C (dose: 37.5 mg/kg/injection, schedule: Q04DX003 (sc), vehicle: saline with Tween-80): 104 % of control
- T/C (dose: 75.0 mg/kg/injection, schedule: Q04DX003 (sc), vehicle: saline with Tween-80): 111 % of control
- T/C (dose: 150.0 mg/kg/injection, schedule: Q04DX003 (sc), vehicle: saline with Tween-80): 87 % of control

SMILES: C(COCCOCC1CO1)OCCOCC1CO1 (stereo not drawn)
- T/C [4]: 64 % of control
- T/C [5]: 29 % of control

SMILES: Cc1cc(NCCCCCCCNc2cc(C)nc3cc(N)ccc23)c2ccc(N)cc2n1
- T/C (dose: 12.5 mg/kg/injection, schedule: Q01DX010 (sc), vehicle: saline with Tween-80): 53 % of control and 56 % of control and 72 % of control

SMILES: CCOC(=O)c1[nH]c2cccc3c2c1CC(Br)C3=O (stereo not drawn)
- T/C [6]: 86 % of control
- T/C [7]: 100 % of control
- T/C [8]: 73 % of control
- T/C [9]: 94 % of control

SMILES: CC(=O)OC1=NC(C)c2c1cc(OC(C)=O)[nH]c2=O (stereo not drawn)
- T/C [10]: 102 % of control
- T/C [11]: 91 % of control
- T/C [12]: 70 % of control

SMILES: CC(C)(C)C1CCCCC1
- T/C [10]: 101 % of control
- T/C [11]: 89 % of control
- T/C [12]: 75 % of control
- T/C (dose: 2400.0 mg/kg/injection, schedule: Q04DX003 (sc), vehicle: Klucel (hydroxypropylcellulose) (HPC)): 65 % of control

SMILES: O=C1CC2(C(=O)N1CN1CCCCC1)c1ccccc1-c1ccccc12
- T/C [1]: 79 % of control
- T/C [2]: 71 % of control
- T/C [3]: 72 % of control

SMILES: COC(=O)C[C@](O)(CCCC(C)(C)O)C(=O)O[C@@H]1C(OC)=C[C@]23CCCN2CCc2cc4c(cc2[C@H]13)OCO4
- T/C (dose: 0.5 mg/kg/injection, schedule: Q01DX010 (sc), vehicle: saline): 177 % of control
- T/C (dose: 1.0 mg/kg/injection, schedule: Q01DX010 (sc), vehicle: saline): 110 % of control

SMILES: CCCCCC#CC1OC12CCCCC2 (stereo not drawn)
- T/C [6]: 83 % of control
- T/C [7]: 101 % of control
- T/C [8]: 83 % of control
- T/C [9]: 78 % of control

SMILES: COc1cc2cc3cc4cc(OC)c(OC)cc4c(C)[n+]3cc2cc1OC (tested in a mixture with another compound)
- T/C (dose: 1200.0 mg/kg/injection, schedule: Q04DX003 (sc), vehicle: suspension in saline): 61 % of control
- T/C (dose: 2400.0 mg/kg/injection, schedule: Q04DX003 (sc), vehicle: suspension in saline): 84 % of control

SMILES: CN(C)c1ccc2c(SCC(=O)OCC(=O)[C@@]3(O)CC[C@H]4[C@@H]5CCC6=CC(=O)C=C[C@]6(C)[C@H]5C(=O)C[C@@]43C)c3ccc(N(C)C)cc3nc2c1
- T/C [13]: 53 % of control
- T/C [14]: 92 % of control
- T/C [10]: 39 % of control
- T/C [11]: 55 % of control

SMILES: Cc1ccccc1CN1C2=NCCN2C(=O)C2=C1CCN(S(=O)(=O)c1ccc(Cl)c(S(N)(=O)=O)c1)C2
- T/C [4]: 59 % of control
- T/C [5]: 122 % of control
- T/C [15]: 109 % of control

SMILES: CO[C@H]1Nc2c(ccc(C)c2O)C(=O)N2C=C(/C=C/C(N)=O)C[C@@H]12
- T/C (dose: 0.5 mg/kg/injection, schedule: Q04DX003 (sc), vehicle: saline + alcohol): 18 % of control and 40 % of control
- T/C (dose: 2.0 mg/kg/injection, schedule: Q04DX003 (sc), vehicle: saline + alcohol): -100 % of control

SMILES: N/C(=N\OC(=O)Nc1ccc(CSc2ccc(Cl)cc2)o1)c1ccccn1
- T/C (dose: 9.38 mg/kg/injection, schedule: Q04DX003 (sc), vehicle: saline): 62 % of control
- T/C (dose: 18.75 mg/kg/injection, schedule: Q04DX003 (sc), vehicle: saline): 66 % of control
- T/C (dose: 37.5 mg/kg/injection, schedule: Q04DX003 (sc), vehicle: saline): 40 % of control
- T/C [14]: 102 % of control
- T/C [10]: 97 % of control

SMILES: CCCCCCCCC(C)C(=O)N1CCCC1C(=O)N1C(CC(=O)CC)CC(C)CC1C(=O)NC(C)C(=O)NC(C)(C)C(=O)NC(C)(C)C(=O)NC(C(=O)NC(C)C(=O)NC(C)(C)C(=O)NC(C)(C)C(=O)NC(C)CN(C)CCO)C(C)CC (stereo not drawn) (X1-P[X2]A[Aib][Aib]IA[Aib][Aib]-X3; configuration not given here)
- T/C (dose: 1.25 mg/kg/injection, schedule: Q04DX003 (sc), vehicle: Klucel (hydroxypropylcellulose) (HPC)): 105 % of control
- T/C (dose: 2.5 mg/kg/injection, schedule: Q04DX003 (sc), vehicle: Klucel (hydroxypropylcellulose) (HPC)): 113 % of control

SMILES: O=S(=O)(O)O
- T/C [13]: 86 % of control
- T/C [14]: 94 % of control
- T/C [10]: 85 % of control

SMILES: CCC(CC)COC(=O)c1ccccc1C(=O)OCC(CC)CC
- T/C [4]: 112 % of control
- T/C [5]: 82 % of control
- T/C [15]: 110 % of control
- T/C (dose: 2400.0 mg/kg/injection, schedule: Q04DX003 (sc), vehicle: saline): 88 % of control

SMILES: N[C@H](C(=O)O)[C@@H]1CC(Cl)=NO1
- T/C (dose: 4.0 mg/kg/injection, schedule: Q01DX010 (sc), vehicle: suspension in saline): -87 % of control
- T/C (dose: 4.0 mg/kg/injection, schedule: Q02DX005 (sc), vehicle: saline): -33 % of control
- T/C (dose: 4.0 mg/kg/injection, schedule: Q04DX003 (sc), vehicle: saline): 52 % of control
- T/C (dose: 8.0 mg/kg/injection, schedule: Q01DX010 (sc), vehicle: saline): -100 % of control and -89 % of control and -76 % of control
- T/C (dose: 8.0 mg/kg/injection, schedule: Q01DX010 (sc), vehicle: suspension in saline): -86 % of control
- T/C (dose: 8.0 mg/kg/injection, schedule: Q02DX005 (sc), vehicle: saline): -59 % of control
- T/C (dose: 8.0 mg/kg/injection, schedule: Q04DX003 (sc), vehicle: saline): 25 % of control
- T/C (dose: 16.0 mg/kg/injection, schedule: Q01DX010 (sc), vehicle: suspension in saline): -82 % of control
- T/C (dose: 16.0 mg/kg/injection, schedule: Q02DX005 (sc), vehicle: saline): -31 % of control
- T/C (dose: 16.0 mg/kg/injection, schedule: Q04DX003 (sc), vehicle: saline): 7 % of control
- T/C (dose: 32.0 mg/kg/injection, schedule: Q01DX010 (sc), vehicle: suspension in saline): -90 % of control
- T/C (dose: 32.0 mg/kg/injection, schedule: Q04DX003 (sc), vehicle: saline): 5 % of control

SMILES: Clc1ccc2nnnn2n1
- T/C (dose: 100.0 mg/kg/injection, schedule: Q04DX003 (sc), vehicle: saline with Tween-80): 173 % of control
- T/C [16]: 95 % of control

SMILES: CCCCCCCCNc1cc2c3c(c1)CCCN3CCC2
- T/C (dose: 3.0 mg/kg/injection, schedule: Q04DX003 (sc), vehicle: Klucel (hydroxypropylcellulose) (HPC)): 110 % of control
- T/C (dose: 6.0 mg/kg/injection, schedule: Q04DX003 (sc), vehicle: Klucel (hydroxypropylcellulose) (HPC)): 74 % of control
- T/C (dose: 12.0 mg/kg/injection, schedule: Q04DX003 (sc), vehicle: Klucel (hydroxypropylcellulose) (HPC)): 108 % of control
- T/C (dose: 24.0 mg/kg/injection, schedule: Q04DX003 (sc), vehicle: Klucel (hydroxypropylcellulose) (HPC)): 51 % of control

SMILES: CC(=O)Oc1ccc[nH]c1=O
- T/C [16]: 111 % of control
- T/C (dose: 400.0 mg/kg/injection, schedule: Q04DX003 (sc), vehicle: saline with Tween-80): 100 % of control
- T/C (dose: 800.0 mg/kg/injection, schedule: Q04DX003 (sc), vehicle: saline with Tween-80): 114 % of control
